Laboratory results as given in US4298525A, “Bis-indole-alkaloid” (Richter Gedeon Vegyeszeti Gyar RT, priority 1979, dated 1981).
Like-named read-outs stand apart in the source and are kept apart here.

Legend:
[1] = animals; cited from earlier work
[2] = human therapy; Rohn, R. et al.; cited from earlier work
S 180 sc. carcinoma = experiment: effect on S 180 sc. carcinoma; assay type: in vivo, Swiss mice; details: even at doses as high as 16 mg/kg i.p. daily
Protocol: S 180 sc. tumor tissues were transplanted into Swiss mice subcutaneously. Treatment was started 24 hours after transplantation. RGH-4451 was administered once a day in a dose of 2, 4, 8 and 16 mg./kg., respectively intraperitoneally. The tumor growth inhibition was evaluated on the 11th day on the basis of the weight of tumors. The change of the weight of spleen was also monitored.

[3] = acute toxicity on mice (LD50, i.p.); assay type: in vivo
Protocol: The acute toxicity of RGH-4451 was tested on mice.
The lethal dose killed the animals on the 2nd to 5th day.

[4] = overall tumor-growth inhibition and prolongation of life (summary of the tests); assay type: in vivo
Protocol: From the tests described hereinabove it can be concluded that 1.0 to 10.0 mg./kg. daily doses or 20 mg./kg. single doses of RGH-4451 have a significant tumor-growth inhibition effect and prolong the duration of life.

[5] = therapeutic effect, MTD/min eff. D; details: in vivo
[6] = paralytic symptoms at sublethal doses; assay type: in vivo; details: even at sublethal doses; by contrast with vincristine
Guerin sc. carcinoma = experiment: effect on Guerin sc. carcinoma; assay type: in vivo, Wistar rats; details: for Mortality until the 22nd day/number of animals / Inhibition / Weight of tumor, treated: six subsequent days; for Inhibition / Weight of tumor, treated: 22nd day
Protocol: Tumors were transplanted into Wistar rats subcutaneously. Administration of RGH-4451 was started on the day following the transplantation and the compound was administered six subsequent days intraperitoneally. The inhibition of tumor growth was evaluated on the 22nd day.

[7] = test system: Ehrlich ascites carcinoma; experiment: effect on Ehrlich ascites carcinoma; assay type: in vivo, outbred Swiss mice; details: for Mean duration of life expressed in % of treated*/control: second part of table, maximum 400%
Protocol: (§1) Transplantation was carried out into outbred Swiss mice at a level of 5×10^6 ascites tumor cells. Administration of RGH-4451 was started 24 hours after transplantation.

P 388 tumor cells = experiment: inhibition of tumor growth in tissue culture, P 388; assay type: cell-based, mice; details: for inhibition at 0.1 µg/mL: Mus musculus, P388
Protocol: The inhibition of tumor growth was initially studied in a tissue culture. A 20 mg./ml. solution of RGH-4451 in a Fischer medium was prepared and subsequently diluted to the desired concentration. The number of cells in the P 388 cultures was determined 24 and 48 hours after treatment.
The inhibition was 43% after 24 hours and 89% after 48 hours. In in vitro tests the compound was 100-times less toxic than vincristine and 4-times less toxic than N-desmethyl-N-formyl-leurosine.

NK/Ly ascites lymphoma = experiment: effect on NK/Ly ascites lymphoma; assay type: in vivo, outbred Swiss mice
Protocol: Tests were carried out analogously with the Ehrlich ascites test.
as §1

P 388 leukemia = experiment: effect on P 388 leukemia tumors of mice; assay type: in vivo, BDF1 hybrid mice
Description: 10^6 P 388 leukemia cells were transplanted into BDF1 hybrid mice intraperitoneally. Administration of RGH-4451 was started the day following the transplantation.

[8] = in vivo
[9] = administration of vincristine; cited from earlier work
[10] = 2.0 mg/kg i.p., 9 treatments, every day
[11] = 4.0 mg/kg i.p., 9 treatments, every day
[12] = 6.0 mg/kg i.p., 9 treatments, every day
[13] = 3.2 mg/kg i.p., 9 treatments, every day
[14] = 3.2 mg/kg i.p., 9 treatments, every day, control 12.3 days
[15] = 5.0 mg/kg i.p., 9 treatments, every day
[16] = 5.0 mg/kg i.p., 9 treatments, every day, control 13.2 days
[17] = 6.4 mg/kg i.p., 9 treatments, every day
[18] = 6.4 mg/kg i.p., 9 treatments, every day, control 12.3 days
[19] = 10 mg/kg i.p., 5 treatments, every second day
[20] = 10 mg/kg i.p., 5 treatments, every second day, control 10.5 days
[21] = 20 mg/kg i.p., 1 treatment, control 10.5 days
[22] = 20 mg/kg i.p., 6 treatments, every day
[23] = 20 mg/kg i.p., 6 treatments, every day, control 13.2 days

CC[C@]12CN3CCc4c([nH]c5ccccc45)[C@@](C(=O)OC)(c4cc5c(cc4OC)N(C)[C@H]4[C@@](O)(C(=O)OC)[C@H](OC(C)=O)[C@]6(CC)C=CCN7CC[C@]54[C@@H]76)C[C@H](C3)[C@H]1O2 [leurosine]
antitumor activity [1]: antitumor activity of leurosine has been proved on animals
toxicity on the hematopoietic organs [2]: unreasonably high toxicity on the hematopoietic organs

CCOCN1c2cc(OC)c(C3(C(=O)OC)CC4CN(CCc5c3[nH]c3ccccc53)CC(O)(CC)C4)cc2C23CCN4CC=CC(CC)(C(OC(C)=O)C(O)(C(=O)OC)C12)C43 (centres unmarked) [RGH-4451]
decrease in the weight of spleen (S 180 sc. carcinoma): no substantial decrease in the weight of spleen
LD50 of RGH-4451 as multiple of that of N-desmethyl-N-formyl-leurosine ([3]; i.p.): 2.5 times
LD50 of RGH-4451 as multiple of that of vinblastine ([3]; i.p.): about 10 times
LD50 of RGH-4451 as multiple of that of vincristine ([3]; i.p.): 17 fold
paralytic symptoms accompanying death ([3]; lethal dose): not accompanied by paralytic symptoms
LD50 ([3]; mouse, in vivo, ip): 70 mg/kg
crippling of surviving animals ([3]; survivors, in contrast with vincristine): not crippled even temporarily
single dose with a significant tumor-growth inhibition effect and prolongation of life [4]: 20 mg/kg
MTD/min eff. D [5]: 10
paralytic symptoms [6]: entirely lacking
Mortality until the 22nd day/number of animals (Guerin sc. carcinoma; 2.0 mg/kg i.p.): 0/6
Inhibition (Guerin sc. carcinoma; 2.0 mg/kg i.p.): 43
Weight of tumor, treated (Guerin sc. carcinoma; 2.0 mg/kg i.p., control 18.9): 10.7
Mortality until the 22nd day/number of animals (Guerin sc. carcinoma; 6.0 mg/kg i.p.): 0/6
Inhibition (Guerin sc. carcinoma; 6.0 mg/kg i.p.): 81
Weight of tumor, treated (Guerin sc. carcinoma; 6.0 mg/kg i.p., control 44.9): 8.69
Mortality until the 22nd day/number of animals (Guerin sc. carcinoma; 10.0 mg/kg i.p.): 0/6
Inhibition (Guerin sc. carcinoma; 10.0 mg/kg i.p.): 68
Weight of tumor, treated (Guerin sc. carcinoma; 10.0 mg/kg i.p., control 44.9): 14.64
Mortality until the 22nd day/number of animals (Guerin sc. carcinoma; 14.0 mg/kg i.p.): 5/6
growth of Guerin carcinoma (in words) (Guerin sc. carcinoma; 2 to 10 mg/kg i.p. doses): strongly inhibited
Mean duration of life expressed in % of treated/control ([7]; 1.0 mg/kg i.p., 9 treatments, every day): 15.4%
Mean duration of life, treated ([7]; 1.0 mg/kg i.p., 9 treatments, every day, control 15.4 days): 54.2 days
On the 65th day alive [7, 10]: 9/10
On the 65th day tumor-free [7, 10]: 6/10
Mean duration of life, treated ([7]; 2.0 mg/kg i.p., 9 treatments, every day, control 16.4 days, first part of table): 43.0 days
Mean duration of life, treated ([7]; 2.0 mg/kg i.p., 9 treatments, every day, control 16.4 days, second part of table (65th day)): 64.1 days
Mean duration of life expressed in % of treated/control ([7]; 2.0 mg/kg i.p., 9 treatments, every day, first part of table): 261%
Mean duration of life expressed in % of treated*/control [7, 10]: 392%
On the 65th day alive [7, 11]: 8/10
On the 65th day tumor-free [7, 11]: 7/10
Mean duration of life, treated ([7]; 4.0 mg/kg i.p., 9 treatments, every day, control 16.4 days, first part of table): 36.4 days
Mean duration of life, treated ([7]; 4.0 mg/kg i.p., 9 treatments, every day, control 16.4 days, second part of table (65th day)): 62.9 days
Mean duration of life expressed in % of treated/control ([7]; 4.0 mg/kg i.p., 9 treatments, every day, first part of table): 222%
Mean duration of life expressed in % of treated*/control [7, 11]: 384%
On the 65th day alive [7, 12]: 8/10
On the 65th day tumor-free [7, 12]: 4/10
Mean duration of life, treated ([7]; 6.0 mg/kg i.p., 9 treatments, every day, control 15.9 days, first part of table): 48.2 days
Mean duration of life, treated ([7]; 6.0 mg/kg i.p., 9 treatments, every day, control 16.7 days, second part of table (65th day)): 65.8 days
Mean duration of life expressed in % of treated/control ([7]; 6.0 mg/kg i.p., 9 treatments, every day, first part of table): 303%
Mean duration of life expressed in % of treated*/control [7, 12]: 394%
On the 65th day alive ([7]; 20 mg/kg i.p., 1 treatment): 8/10
On the 65th day tumor-free ([7]; 20 mg/kg i.p., 1 treatment): 3/10
Mean duration of life, treated ([7]; 20 mg/kg i.p., 1 treatment, control 16.7 days, second part of table (65th day)): 65.5 days
Mean duration of life expressed in % of treated*/control ([7]; 20 mg/kg i.p., 1 treatment): 392%
antitumor effect (in words) ([7]; 2 to 6 mg/kg once a day): remarkable antitumor effect
proportion of treated animals tumor-free on the 65th day (in words) ([7]; 2 to 6 mg/kg once a day): a great part of the treated animals is tumor-free on the 65th day
growth of P 388 tumor cells (in words) (P 388 tumor cells; 10^-1 μg./ml.): considerably inhibited
inhibition at 0.1 µg/mL (P 388 tumor cells; 10^-1 μg./ml., after 24 hours): 43%
inhibition at 0.1 µg/mL (P 388 tumor cells; 10^-1 μg./ml., after 48 hours): 89%
in vitro toxicity, times less toxic than N-desmethyl-N-formyl-leurosine (P 388 tumor cells; in vitro, less toxic than N-desmethyl-N-formyl-leurosine): 4 times
in vitro toxicity, times less toxic than vincristine (P 388 tumor cells; in vitro, less toxic than vincristine): 100 times
Mean duration of life expressed in % of treated/control (NK/Ly ascites lymphoma; [13]): 181%
Mean duration of life, treated (NK/Ly ascites lymphoma; [14]): 22.3 days
Mean duration of life expressed in % of treated/control (NK/Ly ascites lymphoma; [15]): 163%
Mean duration of life, treated (NK/Ly ascites lymphoma; [16]): 21.5 days
Mean duration of life expressed in % of treated/control (NK/Ly ascites lymphoma; [17]): 166%
Mean duration of life, treated (NK/Ly ascites lymphoma; [18]): 20.5 days
Mean duration of life expressed in % of treated/control (NK/Ly ascites lymphoma; [19]): 208%
Mean duration of life, treated (NK/Ly ascites lymphoma; [20]): 21.8 days
tolerability of the large dose given every day (in words) (NK/Ly ascites lymphoma; 20 mg/kg every day, cannot be administered due to its toxicity): cannot be administered every
Mean duration of life expressed in % of treated/control (NK/Ly ascites lymphoma; 20 mg/kg i.p., 1 treatment): 185%
Mean duration of life, treated (NK/Ly ascites lymphoma; [21]): 19.4 days
Mean duration of life expressed in % of treated/control (NK/Ly ascites lymphoma; [22]): 64%
Mean duration of life, treated (NK/Ly ascites lymphoma; [23]): 8.5 days
duration of life of the tumorous animals (in words) (NK/Ly ascites lymphoma; 3.2 to 6.4 mg/kg doses every day): considerably been prolonged
effect on duration of life (in words) (NK/Ly ascites lymphoma; single 20 mg/kg dose): also effective
Mean duration of life expressed in % of treated/control (P 388 leukemia; [13]): 181%
Mean duration of life, treated (P 388 leukemia; [14]): 22.3 days
Mean duration of life expressed in % of treated/control (P 388 leukemia; [15]): 163%
Mean duration of life, treated (P 388 leukemia; [16]): 21.5 days
Mean duration of life expressed in % of treated/control (P 388 leukemia; [17]): 166%
Mean duration of life, treated (P 388 leukemia; [18]): 20.5 days
Mean duration of life expressed in % of treated/control (P 388 leukemia; [19]): 208%
Mean duration of life, treated (P 388 leukemia; [20]): 21.8 days
Mean duration of life expressed in % of treated/control (P 388 leukemia; 20 mg/kg i.p., 1 treatment): 185%
Mean duration of life, treated (P 388 leukemia; [21]): 19.4 days
Mean duration of life expressed in % of treated/control (P 388 leukemia; [22]): 64%
Mean duration of life, treated (P 388 leukemia; [23]): 8.5 days

CCC12CN3CCc4c([nH]c5ccccc45)C(C(=O)OC)(c4cc5c(cc4OC)N(C=O)C4C(O)(C(=O)OC)C(OC(C)=O)C6(CC)C=CCN7CCC54C76)CC(C3)C1O2 (centres unmarked) [N-desmethyl-N-formyl-leurosine, reference compound]
effect of a large single dose on the duration of life [7]: did not increase the duration of life
MTD/min eff. D [8]: 4

CC[C@]1(O)C[C@H]2CN(CCc3c([nH]c4ccccc34)[C@@](C(=O)OC)(c3cc4c(cc3OC)N(C=O)[C@H]3[C@@](O)(C(=O)OC)[C@H](OC(C)=O)[C@]5(CC)C=CCN6CC[C@]43[C@@H]65)C2)C1 [vincristine, N-desmethyl-N-formylvinblastine]
toxic side effects [9]: paralytic symptoms due to neurotoxicity
effect of a large single dose on the duration of life [7]: did not increase the duration of life
MTD/min eff. D [8]: 6
